Where two headings read alike, the source gives them in different places.

In data set [1] the target is Recombinant human JAK3 catalytic domain (Homo sapiens (Human), UniProt P52333). Put plainly: JAK3 inhibition assay. Format: biochemical.
The target in data set [2] is Recombinant human JAK2 catalytic domain (Homo sapiens (Human), UniProt O60674). The data set can be described thus: JAK2 inhibition assay. The class given is biochemical. The note with it: semi-quantitative score. An outline of the steps: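 Radiometric kinase reactions ran for 90 min at 30 °C and were stopped with phosphoric acid, then washed and counted by scintillation. Percent inhibition was set relative to vehicle and to 10 μM staurosporine background. IC50 was derived from dose-dilution series.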

Data set [3] is described as follows: Microsomal stability, rat liver microsomes. Format: in vitro ADME. The note with it: percentage of compound remaining after 60 minutes, 3 μM compound. An outline of the steps: (§1)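 Compound was incubated with liver microsomes plus an NADP+/glucose-6-phosphate/G6PDH/MgCl2 regenerating system at 37°C for 1 h. Reactions were stopped 1:1 with MeOH or ACN and analysed by LCMS.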

Data set [4] can be described thus: Microsomal stability, human liver microsomes. As to conditions: percentage of compound remaining after 60 minutes, 3 μM compound. Format: in vitro ADME. An outline of the steps:
as §1

Another data set relates to TNF-alpha release. The data set can be described thus: Septic shock model (LPS-induced TNF release). Format: in vivo, mouse. The note with it: 30 mg/kg po, BALB/cJ mice, LPS ip; statistically significant. As for the experimental part:
Injection of lipopolysaccharide (LPS) induces a rapid release of soluble tumour necrosis factor (TNF-alpha) into the periphery. This model is used to analyse prospective blockers of TNF release in vivo.
Six BALB/cJ female mice (20 g) per group were treated at the intended dosing once, po. Thirty minutes later, LPS (15 μg/kg; E. Coli serotype 0111:B4) was injected ip. Ninety minutes later, mice were euthanized and blood was collected. Circulating TNF alpha levels were determined using commercially available ELISA kits. Dexamethasone (5 μg/kg) was used as a reference anti-inflammatory compound. Selected compounds are tested at one or multiple doses, e.g. 3 and/or 10 and/or 30 mg/kg, po.

In data set [5] the target is Recombinant human TYK2 catalytic domain (Homo sapiens (Human), UniProt P29597). Put plainly: TYK2 inhibition assay. Format: biochemical. As to conditions: semi-quantitative score. The method in brief: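 Recombinant human TYK2 catalytic domain; radiometric kinase reaction run 90 min at 30° C, stopped with phosphoric acid, washed and counted by scintillation.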
The target of data set [6] is Recombinant human JAK1 catalytic domain (Homo sapiens (Human), UniProt P23458). The data set can be described thus: JAK1 inhibition assay. Format: biochemical. The method in brief:
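Radiometric assay read by scintillation counting after phosphoric-acid washes. Percent inhibition calculated from cpm relative to vehicle and 10 μM staurosporine control. IC50 derived from compound dose-dilution series.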

The subject of data set [7] is Collagen antibody-induced arthritis. Put plainly: MAB model (collagen antibody-induced arthritis). Format: in vivo, mouse. As to conditions: 30 mg/kg p.o., DBA/J mice. As for the experimental part: The MAB model allows a rapid assessment of the modulation of an RA-like inflammatory response by therapeutics ([…]. Nature Protocols (2006) 2512-2516: Collagen antibody-induced arthritis). DBA/J mice were injected i.v. with a cocktail of mAbs directed against collagen II. One day later, compound treatment was initiated (vehicle: 10% (v/v) HPβCD). Three days later, mice received an i.p. LPS injection (50 μg/mouse), resulting in a fast onset of inflammation. Compound treatment was continued until 10 days after the mAb injection. Inflammation was read by measuring paw swelling and recording the clinical score of each paw. The cumulative clinical arthritis score of four limbs was presented to show the severity of inflammation. A scoring system is applied to each limb using a scale of 0-4, with 4 being the most severe inflammation. • 0 Symptom free • 1 Mild, but definite redness and swelling of one type of joint such as the ankle or wrist, or apparent redness and swelling limited to individual digits, regardless of the number of affected digits • 2 Moderate redness and swelling of two or more types of joints • 3 Severe redness and swelling of the entire paw including digits • 4 Maximally inflamed limb with involvement of multiple joints

Chain of Recombinant human JAK3 catalytic domain (P52333 781-1124): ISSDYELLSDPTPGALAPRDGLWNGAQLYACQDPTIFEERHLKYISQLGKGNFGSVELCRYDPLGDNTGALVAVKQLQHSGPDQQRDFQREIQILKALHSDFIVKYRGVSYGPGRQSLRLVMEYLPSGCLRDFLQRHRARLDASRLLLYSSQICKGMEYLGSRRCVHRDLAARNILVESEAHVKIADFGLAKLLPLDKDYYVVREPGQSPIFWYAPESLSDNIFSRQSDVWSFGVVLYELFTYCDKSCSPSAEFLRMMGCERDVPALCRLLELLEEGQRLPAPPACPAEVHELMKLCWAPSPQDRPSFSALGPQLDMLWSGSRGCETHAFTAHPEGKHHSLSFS
Chain of Recombinant human JAK2 catalytic domain (O60674 808-1132): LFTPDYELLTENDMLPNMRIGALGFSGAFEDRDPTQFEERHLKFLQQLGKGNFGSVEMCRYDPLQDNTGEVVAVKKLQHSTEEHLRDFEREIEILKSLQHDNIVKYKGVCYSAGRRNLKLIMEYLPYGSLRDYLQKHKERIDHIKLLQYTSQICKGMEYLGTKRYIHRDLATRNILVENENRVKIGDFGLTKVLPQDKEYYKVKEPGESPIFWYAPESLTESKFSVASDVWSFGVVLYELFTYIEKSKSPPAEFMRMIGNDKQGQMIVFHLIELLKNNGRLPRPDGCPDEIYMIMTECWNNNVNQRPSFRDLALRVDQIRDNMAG
Chain of Recombinant human JAK1 catalytic domain (P23458 850-1154): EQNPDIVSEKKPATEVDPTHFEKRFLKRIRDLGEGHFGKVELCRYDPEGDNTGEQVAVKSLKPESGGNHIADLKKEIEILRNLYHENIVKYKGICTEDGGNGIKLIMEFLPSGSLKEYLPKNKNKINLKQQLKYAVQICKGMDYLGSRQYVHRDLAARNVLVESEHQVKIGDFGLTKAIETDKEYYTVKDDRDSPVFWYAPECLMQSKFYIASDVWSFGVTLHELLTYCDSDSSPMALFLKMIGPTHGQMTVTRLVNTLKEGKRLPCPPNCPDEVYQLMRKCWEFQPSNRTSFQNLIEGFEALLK
Chain of Recombinant human TYK2 catalytic domain (P29597 871-1187): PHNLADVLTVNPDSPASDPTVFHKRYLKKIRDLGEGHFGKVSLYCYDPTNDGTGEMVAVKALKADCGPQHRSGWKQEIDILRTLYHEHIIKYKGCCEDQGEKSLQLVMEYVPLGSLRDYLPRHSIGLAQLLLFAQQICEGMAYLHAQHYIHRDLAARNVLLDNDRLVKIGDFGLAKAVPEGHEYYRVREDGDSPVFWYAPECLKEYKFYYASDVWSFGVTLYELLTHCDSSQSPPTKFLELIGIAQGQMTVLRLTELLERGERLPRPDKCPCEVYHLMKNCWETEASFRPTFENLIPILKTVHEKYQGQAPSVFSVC

The IC50 is the concentration at which inhibition is half-maximal. Take `O=C(Nc1nc2cccc(-c3ccc(CN4CCOCC4)cc3)n2n1)C1CC1` [Compound 18, N-(5-(4-(morpholinomethyl)phenyl)-[1,2,4]triazolo[1,5-a]pyridin-2-yl)cyclopropanecarboxamide]: the concentration for half-maximal inhibition (IC50) in data set [1] (semi-quantitative score), in data set [2] and in data set [5] was > 1000 nM throughout. Moreover, the “Microsomal Stability Rat (%)” value in data set [3] is “** (** 26-50)”. Further, the “Microsomal Stability Human (%)” value in data set [4] is on record as “**** (**** 76-100)”. Also, the “reduction in the TNF release” value with TNF-alpha release is on record as > 50%.

As to `CC1CCCN(C(=O)c2ccc(-c3cccc4nc(NC(=O)C5CC5)nn34)cc2)C1` (centres unmarked) [Compound 145, N-(5-(4-(3-methylpiperidine-1-carbonyl)phenyl)-[1,2,4]triazolo[1,5-a]pyridin-2-yl)cyclopropanecarboxamide], the concentration for half-maximal inhibition (IC50) in data set [6] (semi-quantitative score) is < 100 nM. Also, the “Microsomal Stability Rat (%)” value in data set [3] is given as “* (* 0-25)”. For the same molecule, the “Microsomal Stability Human (%)” value in data set [4] was “*** (*** 51-75)”.

`N#Cc1ccc(COc2ccc(-c3cccc4nc(NC(=O)C5CC5)nn34)cc2)cn1` [Compound 176, N-(5-(4-((6-cyanopyridin-3-yl)methoxy)phenyl)-[1,2,4]triazolo[1,5-a]pyridin-2-yl)cyclopropanecarboxamide]: the IC50 in data set [1], in data set [2], in data set [6] and in data set [5] was < 100 nM each time. Besides, in data set [3], the “Microsomal Stability Rat (%)” value is reported as “**** (**** 76-100)”. Besides, in data set [4], the “Microsomal Stability Human (%)” value is “**** (**** 76-100)”. In data set [7], the clinical score result is “reduced the clinical score with statistical significance”. Further, the inflammation result in data set [7] is on record as “significantly reduced inflammation”. The “reduction in the TNF release” value with TNF-alpha release is reported as > 50%.

Regarding `CC1CN(C(=O)c2ccc(-c3cccc4nc(NC(=O)C5CC5)nn34)cc2)CC(C)O1` (centres unmarked) [Compound 215, Cyclopropanecarboxylic acid {5-[4-(2,6-dimethyl-morpholine-4-carbonyl)-phenyl]-[1,2,4]triazolo[1,5-a]pyridin-2-yl}-amide], the half-maximal inhibitory concentration (IC50) in data set [1] (semi-quantitative score) is < 100 nM; in data set [2], 101 to 500 nM; in data set [6] (semi-quantitative score), < 100 nM. The “Microsomal Stability Rat (%)” value in data set [3] is “**** (**** 76-100)”. Moreover, the “Microsomal Stability Human (%)” value in data set [4] is on record as “**** (**** 76-100)”. The “reduction in the TNF release” value in the data set with TNF-alpha release is > 50%.

As to `CC1(C)CN(C(=O)c2ccc(-c3cccc4nc(NC(=O)C5CC5)nn34)cc2)C1` [Compound 330, Cyclopropanecarboxylic acid (5-[4-(3,3-dimethyl-azetidine-1-carbonyl)-phenyl]-[1,2,4]triazolo[1,5-a]pyridin-2-yl}-amide], the figures for the IC50 in data set [1] (semi-quantitative score), in data set [2] and in data set [6] (semi-quantitative score) were 101 to 500 nM, 101 to 500 nM and < 100 nM, respectively. In addition, the “Microsomal Stability Rat (%)” value in data set [3] is “**** (**** 76-100)”. Moreover, in data set [4], the “Microsomal Stability Human (%)” value is “**** (**** 76-100)”.

For the origin of these results see patent US10206907B2, “Compounds useful for the treatment of degenerative and inflammatory diseases” (GALAPAGOS NV, priority 2008, dated 2019).
